Test results as given in PubChem BioAssay AID1745844 (Carcinogenic Potency Database (CPDB), 2022).
Activity calls are given as the source filed them. No rule for the calls is given here.

System: rodent lifetime carcinogenesis bioassay, tumor incidence TD50
Assay: chronic cancer bioassays in animals – CPDB, compiled studies (AID 1745844)

Q: Which results are given for `O=Cc1ccco1`?
A: carcinogen call (hamster, strain Syrian Golden, females, inhaled, site: liver, lesion: one or several types, types not named, dosed 52 weeks, study length 81 weeks): negative (inactive); carcinogen call (hamster, strain Syrian Golden, females, inhaled, site: lung, lesion: one or several types, types not named, dosed 52 weeks, study length 81 weeks): negative (inactive); carcinogen call (hamster, strain Syrian Golden, males, inhaled, site: liver, lesion: one or several types, types not named, dosed 52 weeks, study length 81 weeks): negative (inactive); carcinogen call (hamster, strain Syrian Golden, males, inhaled, site: lung, lesion: one or several types, types not named, dosed 52 weeks, study length 81 weeks): negative (inactive); TD50 (mouse, strain B6C3F1, females, by gavage, site: forestomach, lesion: squamous-cell papilloma, dosed 103 weeks, study length 104 weeks): 920 mg/kg/day; TD50 (mouse, strain B6C3F1, females, by gavage, site: liver, lesion: hepatocellular adenoma + hepatocellular carcinoma + neoplastic nodule, dosed 103 weeks, study length 104 weeks): 377 mg/kg/day; TD50 (mouse, strain B6C3F1, females, by gavage, site: liver, lesion: hepatocellular adenoma + hepatocellular carcinoma, dosed 103 weeks, study length 104 weeks): 377 mg/kg/day; TD50 (mouse, strain B6C3F1, females, by gavage, site: liver, lesion: hepatocellular adenoma, dosed 103 weeks, study length 104 weeks): 364 mg/kg/day; TD50 (mouse, strain B6C3F1, males, by gavage, site: any site (literature study), lesion: several types, types named in the paper, dosed 103 weeks, study length 104 weeks): 165 mg/kg/day; TD50 (mouse, strain B6C3F1, males, by gavage, site: kidney cortex, lesion: adenoma + carcinoma, dosed 103 weeks, study length 104 weeks): 1400 mg/kg/day; TD50 (mouse, strain B6C3F1, males, by gavage, site: liver, lesion: hepatocellular adenoma + hepatocellular carcinoma + neoplastic nodule, dosed 103 weeks, study length 104 weeks): 135 mg/kg/day; TD50 (mouse, strain B6C3F1, males, by gavage, site: liver, lesion: hepatocellular adenoma + hepatocellular carcinoma, dosed 103 weeks, study length 104 weeks): 135 mg/kg/day; TD50 (mouse, strain B6C3F1, males, by gavage, site: liver, lesion: hepatocellular adenoma, dosed 103 weeks, study length 104 weeks): 207 mg/kg/day; TD50 (mouse, strain B6C3F1, males, by gavage, site: liver, lesion: hepatocellular carcinoma, dosed 103 weeks, study length 104 weeks): 219 mg/kg/day; TD50 (mouse, strain B6C3F1, males, by gavage, site: lung, lesion: alveolar/bronchiolar adenoma + alveolar/bronchiolar carcinoma, dosed 103 weeks, study length 104 weeks): 662 mg/kg/day; TD50 (mouse, strain B6C3F1, males, by gavage, site: subcutaneous tissue, lesion: fibrosarcoma + fibroma + sarcoma, dosed 103 weeks, study length 104 weeks): 169 mg/kg/day; TD50 (mouse, strain B6C3F1, males, by gavage, site: subcutaneous tissue, lesion: fibrosarcoma + fibroma, dosed 103 weeks, study length 104 weeks): 190 mg/kg/day; TD50 (mouse, strain B6C3F1, males, by gavage, site: subcutaneous tissue, lesion: fibrosarcoma + sarcoma, dosed 103 weeks, study length 104 weeks): 187 mg/kg/day; TD50 (mouse, strain B6C3F1, males, by gavage, site: subcutaneous tissue, lesion: fibrosarcoma, dosed 103 weeks, study length 104 weeks): 212 mg/kg/day; TD50 (rat, strain Fischer 344, females, by gavage, site: any site (literature study), lesion: several types, types named in the paper, dosed 103 weeks, study length 105 weeks): 194 mg/kg/day (inactive); TD50 (rat, strain Fischer 344, males, by gavage, site: any site (literature study), lesion: several types, types named in the paper, dosed 103 weeks, study length 105 weeks): 150 mg/kg/day; TD50 (rat, strain Fischer 344, males, by gavage, site: liver, lesion: cholangiocarcinoma, dosed 103 weeks, study length 105 weeks): 683 mg/kg/day

Q: Which TD50 (mouse, strain CD-1 HaM/ICR, females, in feed, site: any site (literature study), lesion: several types, types named in the paper, dosed 77 weeks, study length 94 weeks) does the source give for `Nc1nc(N)nc(-c2ccccc2)n1` here?
A: 932 mg/kg/day (inactive)

Q: And the TD50 (mouse, strain CD-1 HaM/ICR, females, in feed, site: liver, lesion: several types, types named in the paper, dosed 77 weeks, study length 94 weeks)?
A: 2040 mg/kg/day (inactive)

Q: And the TD50 (mouse, strain CD-1 HaM/ICR, females, in feed, site: lung, lesion: several types, types named in the paper, dosed 77 weeks, study length 94 weeks)?
A: 9340 mg/kg/day (inactive)

Q: What about the TD50 (mouse, strain CD-1 HaM/ICR, males, in feed, site: any site (literature study), lesion: several types, types named in the paper, dosed 73 weeks, study length 94 weeks) of the same compound?
A: 439 mg/kg/day (inactive)

Q: What about the TD50 (mouse, strain CD-1 HaM/ICR, males, in feed, site: liver, lesion: several types, types named in the paper, dosed 73 weeks, study length 94 weeks) of the same compound?
A: 3200 mg/kg/day (inactive)

Q: And the TD50 (mouse, strain CD-1 HaM/ICR, males, in feed, site: lung, lesion: several types, types named in the paper, dosed 73 weeks, study length 94 weeks)?
A: 304 mg/kg/day (inactive)

Q: And the TD50 (rat, strain Charles River CD (Sprague-Dawley), males, in feed, site: any site (literature study), lesion: several types, types named in the paper, dosed 77 weeks, study length 94 weeks)?
A: 16.3 mg/kg/day (inactive)

Q: And the carcinogen call (rat, strain Charles River CD (Sprague-Dawley), males, in feed, site: liver, lesion: several types, types named in the paper, dosed 77 weeks, study length 94 weeks)?
A: negative (inactive)
